Like-named read-outs stand apart in the source and are kept apart here.
How the values were obtained:
[1] = molecular target: human GABAA α5β2γ1 receptor (Homo sapiens (Human), UniProt P31644+Q8N1C3); experiment: Radioligand binding assay, competition for [3H]RO7239181, γ1-containing GABAA subtypes; conditions: Table 1; [3H]RO7239181 displacement, membranes from HEK293F cells, mean of two determinations
Experimental: The affinity of compounds at GABAA γ1 subunit-containing receptors was measured by competition for [^3H]RO7239181 (67.3 Ci/mmol; Roche) binding to membranes from HEK293F cells (ThermoFisher R79007) expressing human (transiently transfected) receptors of composition α5β2γ1, α2β2γ1, α1β2γ1. For better protein expression of the α2 subunit-containing receptors, the 28 amino acid long signal peptide (Met1 to Ala28) of the human GABAA α2 subunit was substituted by the 31 amino acid long signal peptide (Met1 to Ser31) of human GABAA α5 subunit.
(§1) Harvested pellets from HEK293F cells expressing the different GABAA receptor subtypes were resuspended in Mannitol Buffer pH 7.2-7.4 (Mannitol 0.29 M, Triethylamine 10 mM, Acetic acid 10 mM, EDTA 1 mM plus protease inhibitors (20 tablets Complete, Roche Diagnostics Cat. No. 05 056 489 001 per liter)), washed two times and then resuspended at 1:10 to 1:15 dilution in the same buffer. Cell disruption was performed by stirring the suspension in a Parr vessel #4637 at 435 psi for 15 minutes, and then the suspensions were centrifuged at 1000×g for 15 minutes at 4° C. (Beckman Avanti J-HC: rotor JS-4.2). The supernatant (S1) was transferred in a 21 Schott flask and the pellet (P1) was resuspended with Mannitol Buffer up to 175 ml. The resuspended pellet was transferred into a 250 ml Corning centrifugal beaker and centrifuged at 1500×g for 10 minutes at 4° C. (Beckman Avanti J-HC: rotor JS-4.2). The supernatant (S1) was then transferred in the 21 Schott flask and the pellet was discarded. The supernatants (S1) were centrifuged in 500 ml Beckman polypropylene centrifugal beaker at 15′000×g for 30 minutes at 4° C. (Beckman Avanti J-20 XP; rotor JLA-10.500). The pellet (P2) was resuspended with Mannitol Buffer 1:1 and frozen at −80° C. The supernatant (S2) was centrifuged in 100 ml Beckman polypropylene centrifugal tubes at 48000×g for 50 minutes at 4° C. (Beckman Avanti J-20 XP; rotor JA-18). The supernatant (S3) was discarded and the pellet (P3) was resuspended with 1:1 Mannitol Buffer. The P2 and P3 protein concentration was determined with the BIORAD Standard assay method with bovine serum albumin as standard and measured on the NANO-Drop 1000. The membrane suspension was aliquots (500 μl per tube) and stored at −80° C. until required.
(§2) Membrane homogenates were resuspended and polytronised (Polytron PT1200E Kinematica AG) in Potassium Phosphate 10 mM, KCl 100 mM binding buffer at pH 7.4 to a final assay concentration determined with a previous experiment.
Radioligand binding assays were carried out in a volume of 200 μL (96-well plates) which contained 100 μL of cell membranes, [3H]RO7239181 at a concentration of 1.5 nM (α5β2γ1) or 20-30 nM (α1β2γ1, α2β2γ1) and the test compound in the range of [0.3-10000]=10^−9 M. Nonspecific binding was defined by 10×10^−6 (α5β2γ1) and 30×10^−6 M RO7239181 and typically represented less than 5% (α5β2γ1) and less than 20% (β1β2γ1, α2β2γ1) of the total binding. Assays were incubated to equilibrium for 1 hour at 4° C. and then, membranes were filtered onto unifilter (96-well white microplate with bonded GF/C filters preincubated 20-50 minutes in 0.3% Polyethylenimine) with a Filtermate 196 harvester (Packard BioScience) and washed 4 times with cold Potassium Phosphate 10 mM pH 7.4, KCl 100 mM binding buffer. After anhydrousing, filter-retained radioactivity was detected by liquid scintillation counting. Ki values were calculated using Excel-Fit (Microsoft) and are the means of two determinations.
Representative test results, obtained by the above described assay measuring binding affinity to HEK293 cells expressing human (h) receptors, are shown in the Table 1.

[2] = molecular target: human GABAA α2β2γ1 receptor (Homo sapiens (Human), UniProt P47869+Q8N1C3); experiment: as above; conditions: for LogSel: Log of the γ2/γ1 Ki ratio
Experimental: The affinity of compounds at GABAA γ1 subunit-containing receptors was measured by competition for [^3H]RO7239181 (67.3 Ci/mmol; Roche) binding to membranes from HEK293F cells (ThermoFisher R79007) expressing human (transiently transfected) receptors of composition α5β2γ1, α2β2γ1, α1β2γ1.
as §1, §2
Assays were incubated to equilibrium for 1 hour at 4° C. and then, membranes were filtered onto unifilter (96-well white microplate with bonded GF/C filters preincubated 20-50 minutes in 0.3% Polyethylenimine) with a Filtermate 196 harvester (Packard BioScience) and washed 4 times with cold Potassium Phosphate 10 mM pH 7.4, KCl 100 mM binding buffer. After anhydrousing, filter-retained radioactivity was detected by liquid scintillation counting. Ki values were calculated using Excel-Fit (Microsoft) and are the means of two determinations.

[3] = molecular target: human GABAA α1β3γ2 receptor (Homo sapiens (Human), UniProt P14867+P18507); experiment: Radioligand binding assay, competition for [3H]Flumazenil, γ2-containing GABAA subtypes
Experimental: The affinity of compounds at GABAA γ2 subunit-containing receptors was measured by competition for [^3H]Flumazenil (81.1 Ci/mmol; Roche) binding to HEK293F cells expressing human (transiently transfected) receptors of composition α1β3γ2.
Harvested pellets from HEK293F cells expressing the different GABAA γ2 receptor subtypes were resuspended in Mannitol Buffer pH 7.2-7.4 and processed as described above for the cells expressing the GABAA γ1 subunit-containing receptors.
Assays were incubated to equilibrium for 1 hour at 4° C. and harvested onto GF/C uni-filters (Packard) by filtration using a Packard harvester and washing with ice-cold wash buffer (50 mM Tris; pH 7.5). After anhydrousing, filter-retained radioactivity was detected by liquid scintillation counting. Ki values were calculated using Excel-Fit (Microsoft) and are the means of two determinations.

[4] = molecular target: h-GABA-A α2β2γ1 (Homo sapiens (Human), UniProt P47869+Q8N1C3); experiment: Two-electrode voltage clamp electrophysiology in Xenopus oocytes expressing GABAA receptors; type: cell-based; conditions: α2β2γ1 GABAA receptor subtype expressing oocytes; reference PAMs
Experimental: Xenopus laevis oocytes at maturation stages V-VI were used for the expression of cloned mRNA encoding GABAA receptor subunits. Oocytes ready for RNA micro-injection were bought from Ecocyte, Castrop-Rauxel, Germany and stored in modified Barth's medium (composition in mM: NaCl 88, KCl 1, NaHCO3 2.4, HEPES 10, MgSO4 0.82, CaNO3 0.33, CaCl2 0.33, pH=7.5) at 20° C. until the experiment.
Oocytes were plated in 96-well plates for microinjection using the Roboinject automated instrument (MultiChannelSystems, Reutlingen, Germany). Approximately 50 nL of an aqueous solution containing the RNA transcripts for the subunits of the desired GABAA receptor subtype was injected into each oocyte. […] Oocytes were kept in modified Barth's medium (composition in mM: NaCl 88, KCl 1, NaHCO3 […], HEPES 10, MgSO4 0.82, CaNO3 0.33, CaCl2 0.33, pH=7.5) at 20° C. until the experiment.
Electrophysiological experiments were performed using the Roboocyte instrument (MultiChannelSystems, Reutlingen, Germany) on days 3 to 5 after the micro-injection of mRNA. During the experiment the oocytes were constantly superfused by a solution containing (in mM) NaCl 90, KCl 1, HEPES 5, MgCl2 1, CaCl2 1 (pH 7.4). Oocytes were impaled by two glass microelectrodes (resistance: […]) which were filled with a solution containing KCl 1M+K-acetate 1.5 M and voltage-clamped to −80 mV. The recordings were performed at room temperature using the Roboocyte two-electrode voltage clamp system (Multichannelsystem). After an initial equilibration period of 1.5 min GABA was added for 1.5 min at a concentration evoking approximately 20% of a maximal current response (EC20). After another rest interval of 2.5 min GABA was again added evoking a response of similar amplitude and shape. […] Current traces were recorded at a digitization rate of 10 Hz during and shortly before and after the GABA application.
Each compound and concentration was tested on at least 3 oocytes. Different oocytes were used for different compound concentrations.
For the analysis, the digitized current traces of the first and second GABA response were superimposed and, if necessary, rescaled to equal maximal amplitudes. The ratio between the two responses during the time interval of test compound application was calculated point by point. The extremum of the resulting “ratio trace” was taken as the efficacy (“Fold increase”) of the compound expressed as “% modulation of GABA EC20” (100*(Fold increase−1)).

[5] = Table 1, Ki α1β3γ2 (nM)/Ki α2β2γ1 (nM)
[6] = Table 1, [3H]Flumazenil displacement, HEK293F cells, mean of two determinations, read-out: Ki h-GABAA α1β3γ2
[7] = Ki h-GABAA α2β2γ1, Table 1, [3H]RO7239181 displacement, membranes from HEK293F cells, mean of two determinations

Row | Compound | Ki [1] | γ2/γ1 Selectivity Ratio [2, 5] | LogSel ([2]; Table 1) | Ki [3, 6] | Ki [2, 7] | potentiation of the GABA-induced current [4] | other results
1 | C[C@@H]1N=C(c2c(F)cccc2F)c2c(cnc(C(F)(F)F)c2Cl)-n2nc(C(=O)N[C@H]3C[C@@H](O)C3)nc21 [Example 23, (7S)-11-chloro-9-(2,6-difluorophenyl)-N-cis-(3-hydroxycyclobutyl)-7-methyl-12-(trifluoromethyl)-2,3,5,8,13-pentazatricyclo[8.4.0.02,6]tetradeca-1(10),3,5,8,11,13-hexaene-4-carboxamide] | 9.7 nM | 144 | 2.16 | 14500 nM | – | – | Ki ([2]; Table 1, [3H]RO7239181 displacement, membranes from HEK293F cells, mean of two determinations, read-out: Ki h-GABAA α2β2γ1): 101 nM; Ki ([2]; Table 2, [3H]RO7239181 displacement, read-out: Ki h-GABAA α2β2γ1): 101 nM
2 | CN1C(=O)CN=C(c2ccccc2F)c2ccncc21 [RE-A, reference compound] | – | – | – | – | – | – | Ki ([2]; Ki h-GABAA α2β2γ1, Table 3, reference compounds comparison): 10200 nM; γ2/γ1 Selectivity Ratio ([2]; Table 3, Ki α1β3γ2/Ki α2β2γ1): 0.018; Ki [3]: 179 nM
3 | C[C@@H]1N=C(c2c(F)cccc2F)c2c(cnc(C(F)(F)F)c2Cl)-n2nc(C(=O)N[C@H]3C[C@H](O)C3)nc21 [Example 24, (7S)-11-chloro-9-(2,6-difluorophenyl)-N-trans-(3-hydroxycyclobutyl)-7-methyl-12-(trifluoromethyl)-2,3,5,8,13-pentazatricyclo[8.4.0.02,6]tetradeca-1(10),3,5,8,11,13-hexaene-4-carboxamide] | 2.8 nM | 115 | 2.06 | 8380 nM | 72.6 nM | – | Ki ([2]; Ki h-GABAA α2β2γ1, Table 2, [3H]RO7239181 displacement): 72.6 nM
4 | Cc1cn2c(n1)[C@H](C)N=C(c1c(F)cccc1F)c1c-2cnc(C(F)(F)F)c1Cl [Example 18, (7S)-11-chloro-9-(2,6-difluorophenyl)-4,7-dimethyl-12-(trifluoromethyl)-2,5,8,13-tetrazatricyclo[8.4.0.02,6]tetradeca-1(10),3,5,8,11,13-hexaene] | 5.9 nM | 77 | 1.88 | 4170 nM | 54.5 nM | – | Ki [2]: 131 nM
5 | Cc1nnc2n1-c1ccc(Cl)cc1C(c1ccccc1Cl)=NC2 [Triazolam, reference compound] | – | – | – | – | – | ~60% | –
6 | Cc1ncc2n1-c1ccc(Cl)cc1C(c1ccccc1F)=NC2 [Midazolam, reference compound] | – | – | – | – | – | ~60% | –

From patent publication US20240270744A1 (Hoffmann-La Roche Inc., priority 2021, published 2024)
